Converted amounts (≈) assume the structure as drawn.
Legend:
[1] = Lipophilicity, log P of the compound; assay type: physicochemical; conditions: octanol/water
[2] = Intrinsic clearance in CD1 mouse liver microsomes assessed per mg protein at 1 uM preincubated for 10 mins followed NADPH/UDP-glucuronic acid addition and measured after 30 mins by LC-MS/MS analysis; assay type: ADME, microsome; conditions: 0.5 h
[3] = Drug metabolism in human liver microsomes assessed as 5-(3-methoxy-4-(8-(neopentylamino)pyrido[3,4-d]pyrimidin-2-ylamino)phenyl)-4-methyl-4H-1,2,4-triazol-3-ol formation at 1 uM preincubated for 10 mins followed NADPH/UDP-glucuronic acid addition and measured after 30 mins by LC-MS/MS analysis; assay type: ADME, microsome; conditions: 0.5 h
[4] = molecular target: T1, Dual specificity protein kinase TTK (Homo sapiens, UniProt P33981)
T1 sequence (P33981 whole entry): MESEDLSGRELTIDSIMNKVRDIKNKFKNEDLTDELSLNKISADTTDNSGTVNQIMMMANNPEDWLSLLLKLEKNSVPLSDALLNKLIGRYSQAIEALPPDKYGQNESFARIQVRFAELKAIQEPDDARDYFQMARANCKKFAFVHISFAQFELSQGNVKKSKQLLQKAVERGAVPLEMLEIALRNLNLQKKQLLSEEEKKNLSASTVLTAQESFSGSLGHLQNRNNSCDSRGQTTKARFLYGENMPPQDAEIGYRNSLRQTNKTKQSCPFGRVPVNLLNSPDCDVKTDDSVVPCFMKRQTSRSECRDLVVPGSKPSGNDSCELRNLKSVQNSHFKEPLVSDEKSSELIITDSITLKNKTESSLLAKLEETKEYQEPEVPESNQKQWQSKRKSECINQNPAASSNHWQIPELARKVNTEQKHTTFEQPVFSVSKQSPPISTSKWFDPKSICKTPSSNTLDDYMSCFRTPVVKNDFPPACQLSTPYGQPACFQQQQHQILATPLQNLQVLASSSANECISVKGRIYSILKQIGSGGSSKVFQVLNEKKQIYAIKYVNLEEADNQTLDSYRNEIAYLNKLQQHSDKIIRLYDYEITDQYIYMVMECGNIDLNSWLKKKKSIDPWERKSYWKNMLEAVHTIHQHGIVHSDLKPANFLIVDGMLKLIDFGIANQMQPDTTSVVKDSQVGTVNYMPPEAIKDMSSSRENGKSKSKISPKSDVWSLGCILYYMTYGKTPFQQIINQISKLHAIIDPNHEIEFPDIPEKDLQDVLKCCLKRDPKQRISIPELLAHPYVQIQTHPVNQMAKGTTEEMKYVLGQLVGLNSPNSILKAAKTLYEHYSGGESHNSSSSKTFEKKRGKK
Description: Inhibition of full length human N-terminal 6xHis-tagged MPS1 expressed in baculovirus expression system using 5FAM-H236 peptide as substrate after 60 to 90 mins by caliper assay

[5] = Intrinsic clearance in human liver microsomes assessed per mg protein at 1 uM preincubated for 10 mins followed NADPH/UDP-glucuronic acid addition and measured after 30 mins by LC-MS/MS analysis; assay type: ADME, microsome; conditions: 0.5 h
[6] = molecular target: T1, Dual specificity protein kinase TTK; remark: listed apart in the source
Description: Inhibition of MPS1 autophosphorylation at Thr33/Ser37 in human HCT116 cells after 2 hrs by MSD assay

CDK2/Cyclin A2 = CDK2/Cyclin A2 (Homo sapiens, UniProt P24941)
[7] = Solubility of the compound in PBS buffer at pH 7.4 by HPLC analysis; assay type: physicochemical
[8] = Drug metabolism in human liver microsomes assessed as 1-(2-(2-methoxy-4-(4-methyl-4H-1,2,4-triazol-3-yl)phenylamino)-6-methylpyrido[3,4-d]pyrimidin-8-ylamino)-2,2-dimethylpropan-1-ol formation at 1 uM preincubated for 10 mins followed NADPH/UDP-glucuronic acid addition and measured after 30 mins by LC-MS/MS analysis; assay type: ADME, microsome; conditions: 0.5 h
[9] = Clearance in mouse at 5 mg/kg, iv by ESI-LCMS/MS analysis; assay type: ADME, organism-based; conditions: in vivo
[10] = AUClast in rat at 5 mg/kg, po measured after 6 hrs by ESI-LCMS/MS analysis; assay type: ADME, organism-based; conditions: in vivo
[11] = Clearance in rat at 5 mg/kg, iv by ESI-LCMS/MS analysis; assay type: ADME, organism-based; conditions: in vivo
Rattus norvegicus [12] = assay: Oral bioavailability in rat at 5 mg/kg by ESI-LCMS/MS analysis; assay type: ADME, organism-based; conditions: in vivo
[13] = Cmax in rat at 5 mg/kg, po by ESI-LCMS/MS analysis; assay type: ADME, organism-based; set-up: dose 5 mg/kg, route oral; conditions: in vivo
[14] = Plasma concentration in doxycycline-inducible human DLD-1 cell xenografted mouse model at 25 mg/kg, po administered as single dose and measured after 24 hrs post dose by LC/MS analysis; assay type: ADME, organism-based
Rattus norvegicus [15] = assay: Half life in rat at 5 mg/kg, iv by ESI-LCMS/MS analysis; assay type: ADME, organism-based; conditions: in vivo
Mus musculus [16] = assay: Oral bioavailability in mouse at 5 mg/kg by ESI-LCMS/MS analysis; assay type: ADME, organism-based; conditions: in vivo
[17] = Protein binding in mouse plasma; assay type: ADME, cell-free
Mus musculus [18] = assay: Half life in mouse at 5 mg/kg, iv by ESI-LCMS/MS analysis; assay type: ADME, organism-based; conditions: in vivo
[19] = Cmax in mouse at 5 mg/kg, po by ESI-LCMS/MS analysis; assay type: ADME, organism-based; set-up: dose 5 mg/kg, route oral; conditions: in vivo
[20] = Volume of distribution at steady state in rat at 5 mg/kg, iv by ESI-LCMS/MS analysis; assay type: ADME, organism-based; conditions: in vivo, read-out: Vdss
[21] = Volume of distribution at steady state in mouse at 5 mg/kg, iv by ESI-LCMS/MS analysis; assay type: ADME, organism-based; conditions: in vivo, read-out: Vdss
[22] = AUClast in mouse at 5 mg/kg, po measured after 6 hrs by ESI-LCMS/MS analysis; assay type: ADME, organism-based; conditions: in vivo
[23] = Drug level in human liver microsomes treated with 1 uM N2-(2-Methoxy-4-(4-methyl-4H-1,2,4-triazol-3-yl)phenyl)-6-methyl-N8-neopentylpyrido[3,4-d]pyrimidine-2,8-diamine assessed as compound formation preincubated for 10 mins followed NADPH/UDP-glucuronic acid addition and measured after 30 mins by LC-MS/MS analysis; assay type: ADME, microsome; conditions: 0.5 h

| SMILES | logP [1] | CLH [2] | Ki [4] | CLH [5] | IC50 [6] | IC50 (CDK2/Cyclin A2) | Ki (CDK2/Cyclin A2) | IC50 [4] | solubility [7] | other results |
| --- | --- | --- | --- | --- | --- | --- | --- | --- | --- | --- |
| COc1cc(-c2cnn(C)c2)ccc1Nc1ncc2ccnc(NCC(C)(C)C)c2n1 | 4.27 |  |  |  |  |  |  |  |  |  |
| COc1cc(-c2nncn2C)ccc1Nc1ncc2ccnc(NCC(C)(C)C)c2n1 | 3.6 | 81.5 µL/min/mg | ≤ 0.07 nM | 92.1 µL/min/mg | 3.5 nM | 16 nM | 8 nM |  |  | Drug metabolism [3]: Metabolite_Detected |
| COc1cc(-c2cnc(C)n2C)ccc1Nc1ncc2ccnc(NCC(C)(C)C)c2n1 | 4.27 | 92.5 µL/min/mg | 0.084 nM |  | 44 nM | 86 nM | 43 nM | 8.5 nM |  |  |
| COc1cc(-c2cn(C)nc2C)ccc1Nc1ncc2ccnc(NCC(C)(C)C)c2n1 | 4.56 |  | 24 nM |  | 230 nM | 2800 nM | 1400 nM | 2500 nM |  |  |
| COc1cc(-c2nncn2C)ccc1Nc1ncc2cc(C)nc(NC(O)C(C)(C)C)c2n1 (centres undefined) |  |  |  |  |  |  |  |  |  | Drug uptake [23]: Active |
| CCOc1cc(-c2nnc(CCN(C)C)n2C)ccc1Nc1ncc2cc(C)nc(NCC(C)(C)C)c2n1 | 4.75 | 27.7 µL/min/mg | 0.12 nM | 23 µL/min/mg | 230 nM | 360 nM | 180 nM | 12 nM | 77.6 µM (≈ 40.2 µg/mL) |  |

Further lines, with some results ahead:

| logP [1] | CLH [2] | Ki [4] | CLH [5] | IC50 [6] | IC50 (CDK2/Cyclin A2) | Ki (CDK2/Cyclin A2) | IC50 [4] | solubility [7] | SMILES | other results |
| --- | --- | --- | --- | --- | --- | --- | --- | --- | --- | --- |
| 4.42 |  | 0.78 nM |  | 95 nM | 3000 nM | 1500 nM | 79 nM |  | COc1cc(-c2cnn(C)c2C)ccc1Nc1ncc2ccnc(NCC(C)(C)C)c2n1 |  |
| 4.55 | 34.5 µL/min/mg | 0.094 nM | 28.2 µL/min/mg | 170 nM | 1400 nM | 720 nM | 9.5 nM |  | COc1cc(-c2cnc(C)n2C)ccc1Nc1ncc2cc(C)nc(NCC(C)(C)C)c2n1 |  |
| 3.88 | 41.1 µL/min/mg | 0.13 nM | 23.8 µL/min/mg | 30 nM | 130 nM | 65 nM | 13 nM | 8.6 µM (≈ 3.72 µg/mL) | COc1cc(-c2nncn2C)ccc1Nc1ncc2cc(C)nc(NCC(C)(C)C)c2n1 | Drug metabolism [8]: Metabolite_Detected |
| 3.08 | 32.9 µL/min/mg | 0.11 nM | 9.4 µL/min/mg | 37 nM | 2500 nM | 1300 nM | 11 nM | 56.2 µM (≈ 27.3 µg/mL) | CCOc1cc(-c2nncn2C)ccc1Nc1ncc2cc(C)nc(N3CC4(CCOCC4)C3)c2n1 | clearance [9]: 22.6 mL/min/kg; AUC(0-t) at 6 h [10]: 5.16 µM·h; clearance [11]: 7.59 mL/min/kg; F (Rattus norvegicus [12]): 22%; Cmax [13]: 1180 nM; concentration at 24 h [14]: < 10 nM; t1/2 (Rattus norvegicus [15]): 1.5 h; F (Mus musculus [16]): 63%; PPB [17]: 98.09%; t1/2 (Mus musculus [18]): 0.66 h; Cmax [19]: 3080 nM; Vd [20]: 0.89 L/kg; Vd [21]: 1.21 L/kg; AUC(0-t) at 6 h [22]: 4.78 µM·h |
